Results reported in patent US20140357713A1, “ANTIMICROBIAL COMPOUNDS AND METHODS OF USE” (NexMed Holdings, Inc., priority 2012, published 2014).

Experiments:
[1] = Solubility (Sol., Table 1); assay type: physicochemical
Candida albicans = test: Extended time kill study, Example 34 (0 to 24 h); assay type: cell-based
Method: (§1) Time kill studies. Strain suspensions were prepared as described above for the MIC test, and strain suspensions and compound solutions were mixed in the same volume. Samples were removed at specified times including 0 min, 30 sec, 1 min and 5 mins, were diluted in the test medium and streaked on agar. Colonies were counted after 24 to 48 hrs of incubation.
(§2) The time kill studies of Example 33 were extended for five compounds (Nex-59, Nex-60, Nex-61, Nex-62, and Nex-88) using the same methods at longer time periods and at higher multiples of MIC. Nex-88 is a code number for DDAIP.HCl from a different supplier.

Escherichia coli = test: Extended time kill study, Example 34 (0 to 24 h); assay type: cell-based
Method: as §1, §2

Staphylococcus aureus = test: Extended time kill study, Example 34 (0 to 24 h); assay type: cell-based
Method: as §1, §2

Aspergillus niger = test: Extended time kill study, Example 34 (0 to 24 h); assay type: cell-based
Method: as §1, §2

Pseudomonas aeruginosa = test: Extended time kill study, Example 34 (0 to 24 h); assay type: cell-based
Method: as §1, §2

For `CCCCCCCCCCCCOC(=O)C(C)NCCO.Cl` (stereo not shown) [Nex-61, Dodecyl 2-((2-hydroxyethyl)amino)propanoate hydrochloride], the Sol. [1] was 40%, the “Viable counts in Log10 CFU/mL” value (Candida albicans; 1 × MIC, 1 h) was 5.37 Log10 CFU/mL and the “Viable counts in Log10 CFU/mL” value (Candida albicans; 1 × MIC, 2 h) was 5.37 Log10 CFU/mL. The “Viable counts in Log10 CFU/mL” value (Candida albicans; 1 × MIC, 4 h) was 5.32 Log10 CFU/mL, the “Viable counts in Log10 CFU/mL” value (Candida albicans; 1 × MIC, 6 h) was 5.54 Log10 CFU/mL and the “Viable counts in Log10 CFU/mL” value (Candida albicans; 1 × MIC, 24 h) was over 6 Log10 CFU/mL. For the same compound, the “Viable counts in Log10 CFU/mL” value (Candida albicans; 1 × MIC, 0 h) was 5.43 Log10 CFU/mL, the “Viable counts in Log10 CFU/mL” value (Candida albicans; 2 × MIC, 1 h) was under 3 Log10 CFU/mL and the “Viable counts in Log10 CFU/mL” value (Candida albicans; 2 × MIC, 2 h) was under 3 Log10 CFU/mL. For the same compound, the “Viable counts in Log10 CFU/mL” value (Candida albicans; 2 × MIC, 4 h) was under 2.70 Log10 CFU/mL, the “Viable counts in Log10 CFU/mL” value (Candida albicans; 2 × MIC, 6 h) was under 2.70 Log10 CFU/mL and the “Viable counts in Log10 CFU/mL” value (Candida albicans; 2 × MIC, 24 h) was over 6 Log10 CFU/mL. For the same compound, the “Viable counts in Log10 CFU/mL” value (Candida albicans; 2 × MIC, 0 h) was 5.48 Log10 CFU/mL, the “Viable counts in Log10 CFU/mL” value (Candida albicans; 4 × MIC, 1 h) was under 3 Log10 CFU/mL and the “Viable counts in Log10 CFU/mL” value (Candida albicans; 4 × MIC, 2 h) was under 3 Log10 CFU/mL. The “Viable counts in Log10 CFU/mL” value (Candida albicans; 4 × MIC, 4 h) was under 2.70 Log10 CFU/mL, the “Viable counts in Log10 CFU/mL” value (Candida albicans; 4 × MIC, 6 h) was under 2.70 Log10 CFU/mL and the “Viable counts in Log10 CFU/mL” value (Candida albicans; 4 × MIC, 24 h) was under 1 Log10 CFU/mL. The “Viable counts in Log10 CFU/mL” value (Candida albicans; 4 × MIC, 0 h) was 5.39 Log10 CFU/mL, the “Viable counts, Escherichia coli time kill study” value (Escherichia coli; 1 × MIC, 1 h) was 1.70 Log10 CFU/mL and the “Viable counts, Escherichia coli time kill study” value (Escherichia coli; 1 × MIC, 2 h) was 1.60 Log10 CFU/mL. The “Viable counts, Escherichia coli time kill study” value (Escherichia coli; 1 × MIC, 4 h) was 3.16 Log10 CFU/mL, the “Viable counts, Escherichia coli time kill study” value (Escherichia coli; 1 × MIC, 6 h) was 4.38 Log10 CFU/mL and the “Viable counts, Escherichia coli time kill study” value (Escherichia coli; 1 × MIC, 24 h) was 7.75 Log10 CFU/mL. For the same compound, the “Viable counts, Escherichia coli time kill study” value (Escherichia coli; 1×MIC, time 0) was 5.08 Log10 CFU/mL, the “Viable counts, Escherichia coli time kill study” value (Escherichia coli; 2 × MIC, 1 h) was under 1 Log10 CFU/mL and the “Viable counts, Escherichia coli time kill study” value (Escherichia coli; 2 × MIC, 2 h) was under 1 Log10 CFU/mL. For the same compound, the “Viable counts, Escherichia coli time kill study” value (Escherichia coli; 2 × MIC, 4 h) was under 1 Log10 CFU/mL, the “Viable counts, Escherichia coli time kill study” value (Escherichia coli; 2 × MIC, 6 h) was under 1 Log10 CFU/mL and the “Viable counts, Escherichia coli time kill study” value (Escherichia coli; 2 × MIC, 24 h) was under 1 Log10 CFU/mL. For the same compound, the “Viable counts, Escherichia coli time kill study” value (Escherichia coli; 2 × MIC, time 0) was 5.03 Log10 CFU/mL, the “Viable counts, Escherichia coli time kill study” value (Escherichia coli; 4 × MIC, 1 h) was under 1 Log10 CFU/mL and the “Viable counts, Escherichia coli time kill study” value (Escherichia coli; 4 × MIC, 2 h) was under 1 Log10 CFU/mL. The “Viable counts, Escherichia coli time kill study” value (Escherichia coli; 4 × MIC, 4 h) was under 1 Log10 CFU/mL, the “Viable counts, Escherichia coli time kill study” value (Escherichia coli; 4 × MIC, 6 h) was under 1 Log10 CFU/mL and the “Viable counts, Escherichia coli time kill study” value (Escherichia coli; 4 × MIC, 24 h) was under 1 Log10 CFU/mL. The “Viable counts, Escherichia coli time kill study” value (Escherichia coli; 4 × MIC, time 0) was 5.05 Log10 CFU/mL, the “Viable counts, Staphylococcus aureus time kill study” value (Staphylococcus aureus; 1 × MIC, 1 h) was 5 Log10 CFU/mL and the “Viable counts, Staphylococcus aureus time kill study” value (Staphylococcus aureus; 1 × MIC, 2 h) was under 3 Log10 CFU/mL. For the same compound, the “Viable counts, Staphylococcus aureus time kill study” value (Staphylococcus aureus; 1 × MIC, 4 h) was under 3 Log10 CFU/mL, the “Viable counts, Staphylococcus aureus time kill study” value (Staphylococcus aureus; 1 × MIC, 6 h) was under 3 Log10 CFU/mL and the “Viable counts, Staphylococcus aureus time kill study” value (Staphylococcus aureus; 1 × MIC, 24 h) was under 1 Log10 CFU/mL. The “Viable counts, Staphylococcus aureus time kill study” value (Staphylococcus aureus; 1×MIC, time 0) was 6.14 Log10 CFU/mL, the “Viable counts, Staphylococcus aureus time kill study” value (Staphylococcus aureus; 2 × MIC, 1 h) was under 3 Log10 CFU/mL and the “Viable counts, Staphylococcus aureus time kill study” value (Staphylococcus aureus; 2 × MIC, 2 h) was under 3 Log10 CFU/mL. The “Viable counts, Staphylococcus aureus time kill study” value (Staphylococcus aureus; 2 × MIC, 4 h) was under 3 Log10 CFU/mL, the “Viable counts, Staphylococcus aureus time kill study” value (Staphylococcus aureus; 2 × MIC, 6 h) was under 3 Log10 CFU/mL and the “Viable counts, Staphylococcus aureus time kill study” value (Staphylococcus aureus; 2 × MIC, 24 h) was under 1 Log10 CFU/mL. For the same compound, the “Viable counts, Staphylococcus aureus time kill study” value (Staphylococcus aureus; 2 × MIC, time 0) was 6.20 Log10 CFU/mL, the “Viable counts, Staphylococcus aureus time kill study” value (Staphylococcus aureus; 4 × MIC, 1 h) was under 3 Log10 CFU/mL and the “Viable counts, Staphylococcus aureus time kill study” value (Staphylococcus aureus; 4 × MIC, 2 h) was under 3 Log10 CFU/mL. The “Viable counts, Staphylococcus aureus time kill study” value (Staphylococcus aureus; 4 × MIC, 4 h) was under 3 Log10 CFU/mL, the “Viable counts, Staphylococcus aureus time kill study” value (Staphylococcus aureus; 4 × MIC, 6 h) was under 3 Log10 CFU/mL and the “Viable counts, Staphylococcus aureus time kill study” value (Staphylococcus aureus; 4 × MIC, 24 h) was under 1 Log10 CFU/mL. The “Viable counts, Staphylococcus aureus time kill study” value (Staphylococcus aureus; 4 × MIC, time 0) was 6.18 Log10 CFU/mL, the “Viable counts in Log10 CFU/mL” value (Aspergillus niger; 1 × MIC, 1 h) was 5.48 Log10 CFU/mL and the “Viable counts in Log10 CFU/mL” value (Aspergillus niger; 1 × MIC, 2 h) was 5.36 Log10 CFU/mL. For the same compound, the “Viable counts in Log10 CFU/mL” value (Aspergillus niger; 1 × MIC, 4 h) was 5.18 Log10 CFU/mL, the “Viable counts in Log10 CFU/mL” value (Aspergillus niger; 1 × MIC, 6 h) was 4.95 Log10 CFU/mL and the “Viable counts in Log10 CFU/mL” value (Aspergillus niger; 1 × MIC, 24 h) was 4.48 Log10 CFU/mL. The “Viable counts in Log10 CFU/mL” value (Aspergillus niger; 1 × MIC, 0 h) was 5.28 Log10 CFU/mL, the “Viable counts in Log10 CFU/mL” value (Aspergillus niger; 2 × MIC, 1 h) was 5.52 Log10 CFU/mL and the “Viable counts in Log10 CFU/mL” value (Aspergillus niger; 2 × MIC, 2 h) was 5.57 Log10 CFU/mL. For the same compound, the “Viable counts in Log10 CFU/mL” value (Aspergillus niger; 2 × MIC, 4 h) was 4.48 Log10 CFU/mL, the “Viable counts in Log10 CFU/mL” value (Aspergillus niger; 2 × MIC, 6 h) was 4.90 Log10 CFU/mL and the “Viable counts in Log10 CFU/mL” value (Aspergillus niger; 2 × MIC, 24 h) was 3 Log10 CFU/mL. For the same compound, the “Viable counts in Log10 CFU/mL” value (Aspergillus niger; 2 × MIC, 0 h) was 5.33 Log10 CFU/mL, the “Viable counts in Log10 CFU/mL” value (Aspergillus niger; 4 × MIC, 1 h) was 5.34 Log10 CFU/mL and the “Viable counts in Log10 CFU/mL” value (Aspergillus niger; 4 × MIC, 2 h) was 5.41 Log10 CFU/mL. The “Viable counts in Log10 CFU/mL” value (Aspergillus niger; 4 × MIC, 4 h) was 5.28 Log10 CFU/mL, the “Viable counts in Log10 CFU/mL” value (Aspergillus niger; 4 × MIC, 6 h) was 4.95 Log10 CFU/mL and the “Viable counts in Log10 CFU/mL” value (Aspergillus niger; 4 × MIC, 24 h) was under 2 Log10 CFU/mL. For the same compound, the “Viable counts in Log10 CFU/mL” value (Aspergillus niger; 4 × MIC, 0 h) was 5.26 Log10 CFU/mL, the “Viable counts, Pseudomonas aeruginosa time kill study” value (Pseudomonas aeruginosa; 1 × MIC, 1 h) was under 1 Log10 CFU/mL and the “Viable counts, Pseudomonas aeruginosa time kill study” value (Pseudomonas aeruginosa; 1 × MIC, 2 h) was under 1 Log10 CFU/mL. For the same compound, the “Viable counts, Pseudomonas aeruginosa time kill study” value (Pseudomonas aeruginosa; 1 × MIC, 4 h) was under 1 Log10 CFU/mL, the “Viable counts, Pseudomonas aeruginosa time kill study” value (Pseudomonas aeruginosa; 1 × MIC, 6 h) was under 1 Log10 CFU/mL and the “Viable counts, Pseudomonas aeruginosa time kill study” value (Pseudomonas aeruginosa; 1 × MIC, 24 h) was under 1 Log10 CFU/mL. The “Viable counts, Pseudomonas aeruginosa time kill study” value (Pseudomonas aeruginosa; 1×MIC, time 0) was 5.28 Log10 CFU/mL, the “Viable counts, Pseudomonas aeruginosa time kill study” value (Pseudomonas aeruginosa; 2 × MIC, 1 h) was under 1 Log10 CFU/mL and the “Viable counts, Pseudomonas aeruginosa time kill study” value (Pseudomonas aeruginosa; 2 × MIC, 2 h) was under 1 Log10 CFU/mL. The “Viable counts, Pseudomonas aeruginosa time kill study” value (Pseudomonas aeruginosa; 2 × MIC, 4 h) was under 1 Log10 CFU/mL, the “Viable counts, Pseudomonas aeruginosa time kill study” value (Pseudomonas aeruginosa; 2 × MIC, 6 h) was under 1 Log10 CFU/mL and the “Viable counts, Pseudomonas aeruginosa time kill study” value (Pseudomonas aeruginosa; 2 × MIC, 24 h) was under 1 Log10 CFU/mL. For the same compound, the “Viable counts, Pseudomonas aeruginosa time kill study” value (Pseudomonas aeruginosa; 2 × MIC, time 0) was 5.29 Log10 CFU/mL, the “Viable counts, Pseudomonas aeruginosa time kill study” value (Pseudomonas aeruginosa; 4 × MIC, 1 h) was under 1 Log10 CFU/mL and the “Viable counts, Pseudomonas aeruginosa time kill study” value (Pseudomonas aeruginosa; 4 × MIC, 2 h) was under 1 Log10 CFU/mL. The “Viable counts, Pseudomonas aeruginosa time kill study” value (Pseudomonas aeruginosa; 4 × MIC, 4 h) was under 1 Log10 CFU/mL, the “Viable counts, Pseudomonas aeruginosa time kill study” value (Pseudomonas aeruginosa; 4 × MIC, 6 h) was under 1 Log10 CFU/mL and the “Viable counts, Pseudomonas aeruginosa time kill study” value (Pseudomonas aeruginosa; 4 × MIC, 24 h) was under 1 Log10 CFU/mL. For the same compound, the “Viable counts, Pseudomonas aeruginosa time kill study” value (Pseudomonas aeruginosa; 4 × MIC, time 0) was 5.26 Log10 CFU/mL.
